From patent publication US4443436A, “C-20-Modified macrolide derivatives of the macrolide antibiotics tylosin, desmycosin, macrocin, and lactenocin” (Eli Lilly and Company, priority 1982, dated 1984)
Values after ≈ are worked out from the molar mass of the structure shown. Where two headings read alike, the source gives them in different places.

How the values were obtained:
[1] = test system: Pasteurella multocida 17E; assay: MIC, broth-dilution microtiter test, Pasteurella multocida 17E; type: cell-based; details: Pasteurella multocida 17E; bovine isolate; broth-dilution microtiter; read-out: MIC
From the text: (§1) The MIC's in Table X were obtained using conventional broth-dilution microtiter tests.

[2] = test system: Staphylococcus aureus V41; assay: MIC, standard agar-dilution assay, Staphylococcus aureus V41; type: cell-based; details: Staphylococcus aureus, V41
[3] = test system: Haemophilus influenzae Holt; assay: MIC, standard agar-dilution assay, Haemophilus influenzae Holt; type: cell-based
[4] = test system: Staphylococcus aureus S13E; assay: MIC, standard agar-dilution assay, Staphylococcus aureus S13E; type: cell-based; details: Staphylococcus aureus, S13E
[5] = test system: Haemophilus influenzae R252; assay: MIC, standard agar-dilution assay, Haemophilus influenzae R252; type: cell-based
[6] = test system: Streptococcus Group D X66; assay: MIC, standard agar-dilution assay, Streptococcus Group D X66; type: cell-based
Mycoplasma hyopneumoniae = assay: MIC, broth-dilution microtiter test, Mycoplasma hyopneumoniae; type: cell-based; details: Mesomycoplasma hyopneumoniae
From the text: as §1

Mycoplasma gallisepticum = assay: MIC, broth-dilution microtiter test, Mycoplasma gallisepticum; type: cell-based; details: Mycoplasmoides gallisepticum
From the text: as §1

[7] = test system: Pasteurella hemolytica 22C; assay: MIC, broth-dilution microtiter test, Pasteurella hemolytica 22C; type: cell-based
From the text: as §1

Streptococcus bovis 80 = assay: MIC, broth-dilution microtiter test, Streptococcus bovis 80; type: cell-based; details: Streptococcus equinus; Streptococcus bovis 80; broth-dilution microtiter; read-out: MIC
From the text: as §1

[8] = test system: Streptococcus pyogenes C203; assay: In vivo protection of mice experimentally infected with S. pyogenes C203; details: Streptococcus pyogenes, mice, doses given 1 and 4 hours post-infection
Experimental: The C-20 modified derivatives of this invention have shown in vivo antimicrobial activity against experimentally-induced infections in laboratory animals. When two doses of test compound were administered to mice experimentally infected with S. pyogenes C203, the activity observed was measured as an ED50 value [effective dose in mg/kg to protect 50% of the test animals: see Warren Wick, et al., J. Bacteriol. 81, 233-235 (1961)].

Mycoplasma hyorhinis = assay: MIC, broth-dilution microtiter test, Mycoplasma hyorhinis; type: cell-based
From the text: as §1

Staphylococcus aureus = assay: MIC, broth-dilution microtiter test, Staphylococcus aureus; type: cell-based
From the text: as §1

Streptococcus Group 9960 = assay: MIC, standard agar-dilution assay, Streptococcus Group 9960; type: cell-based; details: GROUP9960; Streptococcus Group 9960; agar dilution; read-out: MIC
[9] = test system: Staphylococcus epidermidis EPI1; assay: MIC, standard agar-dilution assay, Staphylococcus epidermidis EPI1; type: cell-based; details: Staphylococcus epidermidis, EPI1
Mycoplasma synoviae = assay: MIC, broth-dilution microtiter test, Mycoplasma synoviae; type: cell-based; details: Mycoplasmopsis synoviae
From the text: as §1

[10] = test system: Streptococcus pyogenes C203; assay: MIC, standard agar-dilution assay, Streptococcus pyogenes C203; type: cell-based
[11] = test system: Pasteurella multocida 60A; assay: MIC, broth-dilution microtiter test, Pasteurella multocida 60A; type: cell-based
From the text: as §1

[12] = test system: Streptococcus pneumoniae Park I; assay: microbe, parasite or virus in culture; type: cell-based
[13] = test system: Staphylococcus epidermidis EPI2; assay: MIC, standard agar-dilution assay, Staphylococcus epidermidis EPI2; type: cell-based
[14] = test system: Staphylococcus aureus X1.1; assay: MIC, standard agar-dilution assay, Staphylococcus aureus X1.1; type: cell-based; details: Staphylococcus aureus, X1.1
[15] = test system: Staphylococcus aureus X400; assay: MIC, standard agar-dilution assay, Staphylococcus aureus X400; type: cell-based; details: Staphylococcus aureus, X400
[16] = Mycoplasma gallisepticum, broth-dilution microtiter, read-out: MIC
[17] = Mycoplasma synoviae, broth-dilution microtiter, read-out: MIC
[18] = Staphylococcus epidermidis EPI2, agar dilution, read-out: MIC
[19] = Haemophilus influenzae Holt, ampicillin-sensitive strain, read-out: MIC
[20] = Streptococcus Group D X66, agar dilution, read-out: MIC
[21] = Mycoplasma hyopneumoniae, broth-dilution microtiter, read-out: MIC
[22] = Pasteurella hemolytica 22C, broth-dilution microtiter, read-out: MIC
[23] = Mycoplasma hyorhinis, broth-dilution microtiter, read-out: MIC
[24] = Streptococcus pyogenes C203, agar dilution, read-out: MIC
[25] = Pasteurella multocida 60A, avian isolate, broth-dilution microtiter, read-out: MIC
[26] = Staphylococcus epidermidis, EPI2
[27] = Haemophilus influenzae R252, ampicillin-resistant strain, read-out: MIC
[28] = Streptococcus pneumoniae Park I, agar dilution, read-out: MIC

| Compound | MIC [1] | MIC [2] | MIC [4] | MIC ([5]; Haemophilus influenzae, R252) | MIC (Mycoplasma gallisepticum; [16]) | MIC (Streptococcus bovis 80) | MIC (Mycoplasma hyorhinis; Mycoplasma) | MIC (Staphylococcus aureus) | MIC (Streptococcus Group 9960) | MIC [9] | MIC (Mycoplasma synoviae; [17]) | MIC ([10]; Streptococcus pyogenes, C203) | MIC ([12]; Streptococcus pneumoniae) | MIC [14] | MIC [15] | MIC [3, 19] | MIC [6, 20] | MIC (Mycoplasma hyopneumoniae; [21]) | MIC [7, 22] | MIC [11, 25] | further results |
| --- | --- | --- | --- | --- | --- | --- | --- | --- | --- | --- | --- | --- | --- | --- | --- | --- | --- | --- | --- | --- | --- |
| CCC1OC(=O)CC(O)C(C)C(OC2OC(C)C(O)C(N(C)C)C2O)C(CCOc2ccc(C=O)cc2)CC(C)C(=O)C=CC(C)=CC1COC1OC(C)C(O)C(OC)C1OC (centres unmarked) [Compound 36, 20-DH-20-O-(p-formylphenyl)desmycosin] | 25 µg/mL (≈ 28.5 µM) | 0.25 µg/mL (≈ 0.285 µM) | 0.25 µg/mL (≈ 0.285 µM) | 16 µg/mL (≈ 18.2 µM) | 25 µg/mL (≈ 28.5 µM) | 12.5 µg/mL (≈ 14.2 µM) | 50 µg/mL (≈ 56.9 µM) | 12.5 µg/mL (≈ 14.2 µM) | 8 µg/mL (≈ 9.11 µM) | 0.25 µg/mL (≈ 0.285 µM) | > 50 µg/mL | 1 µg/mL (≈ 1.14 µM) | 1 µg/mL (≈ 1.14 µM) | 0.25 µg/mL (≈ 0.285 µM) | 0.25 µg/mL (≈ 0.285 µM) |  |  |  |  |  | MIC ([3]; Haemophilus influenzae): 16 µg/mL (≈ 18.2 µM); MIC [6]: 4 µg/mL (≈ 4.56 µM); MIC (Mycoplasma hyopneumoniae): 12.5 µg/mL (≈ 14.2 µM); MIC ([7]; Pasteurella, 22C): 50 µg/mL (≈ 56.9 µM); ED50 ([8]; C203, sc, subcutaneous, read-out: ED50, Subcutaneous): 2.2 mg/kg; ED50 ([8]; C203, oral, read-out: ED50, Oral): 19 mg/kg; MIC ([11]; Pasteurella multocida, 60A): 12.5 µg/mL (≈ 14.2 µM); MIC [13, 18]: 0.12 µg/mL (≈ 0.137 µM) |
| CCC1OC(=O)CC(O)C(C)C(OC2OC(C)C(OC3CC(C)(O)C(O)C(C)O3)C(N(C)C)C2O)C(CCF)CC(C)C(=O)C=CC(C)=CC1COC1OC(C)C(O)C(OC)C1OC (centres unmarked) [Compound 8, 20-DH-DO-20-Fluoro-tylosin] | > 50 µg/mL | 1 µg/mL (≈ 1.09 µM) | 1 µg/mL (≈ 1.09 µM) | 128 µg/mL (≈ 139 µM) |  | > 50 µg/mL |  | 1.56 µg/mL (≈ 1.7 µM) | > 128 µg/mL | 1 µg/mL (≈ 1.09 µM) | 12.5 µg/mL (≈ 13.6 µM) |  | 64 µg/mL (≈ 69.6 µM) | 1 µg/mL (≈ 1.09 µM) | 2 µg/mL (≈ 2.17 µM) | > 128 µg/mL | > 128 µg/mL | > 25 µg/mL | > 50 µg/mL | > 50 µg/mL | MIC (Mycoplasma gallisepticum): 1.56 µg/mL (≈ 1.7 µM); MIC (Mycoplasma hyorhinis; [23]): > 50 µg/mL; MIC [10, 24]: 4 µg/mL (≈ 4.35 µM); MIC [13, 26]: 1 µg/mL (≈ 1.09 µM) |
| CCC1OC(=O)CC(O)C(C)C(OC2OC(C)C(OC3CC(C)(O)C(O)C(C)O3)C(N(C)C)C2O)C(CCOc2cc(Cl)cc(Cl)c2)CC(C)C(=O)C=CC(C)=CC1COC1OC(C)C(O)C(OC)C1OC (centres unmarked) [Compound 15, 20-DH-20-O-(3,5-Dichlorophenyl)tylosin] | > 50 µg/mL | 2 µg/mL (≈ 1.88 µM) | 1 µg/mL (≈ 0.941 µM) |  | 1.56 µg/mL (≈ 1.47 µM) | 6.25 µg/mL (≈ 5.88 µM) | 50 µg/mL (≈ 47 µM) |  | > 128 µg/mL | 2 µg/mL (≈ 1.88 µM) | 3.12 µg/mL (≈ 2.93 µM) | 1 µg/mL (≈ 0.941 µM) |  | 1 µg/mL (≈ 0.941 µM) | 4 µg/mL (≈ 3.76 µM) | > 128 µg/mL | > 128 µg/mL | > 25 µg/mL | > 50 µg/mL | > 50 µg/mL | MIC [5, 27]: > 128 µg/mL; MIC (Staphylococcus aureus; broth-dilution microtiter, read-out: MIC): 1.56 µg/mL (≈ 1.47 µM); MIC [12, 28]: 16 µg/mL (≈ 15.1 µM); MIC [13, 26]: 1 µg/mL (≈ 0.941 µM) |
| CCC1OC(=O)CC(O)C(C)C(OC2OC(C)C(OC3CC(C)(O)C(O)C(C)O3)C(N(C)C)C2O)C(CCOC(C(F)(F)F)C(F)(F)F)CC(C)C(=O)C=CC(C)=CC1COC1OC(C)C(O)C(OC)C1OC (centres unmarked) [Compound 19, 20-DH-20-O-[2,2,2-Trifluoro-1-(trifluormethyl)ethyl]tylosin] | > 50 µg/mL | 4 µg/mL (≈ 3.74 µM) | 4 µg/mL (≈ 3.74 µM) |  |  | > 50 µg/mL |  | 12.5 µg/mL (≈ 11.7 µM) | > 128 µg/mL | 4 µg/mL (≈ 3.74 µM) |  |  |  | 4 µg/mL (≈ 3.74 µM) | 4 µg/mL (≈ 3.74 µM) | > 128 µg/mL | > 128 µg/mL | > 25 µg/mL | > 50 µg/mL | > 50 µg/mL | MIC [5, 27]: > 128 µg/mL; MIC (Mycoplasma gallisepticum): 3.12 µg/mL (≈ 2.92 µM); MIC (Mycoplasma hyorhinis; [23]): > 50 µg/mL; MIC (Mycoplasma synoviae): 12.5 µg/mL (≈ 11.7 µM); MIC [10, 24]: 8 µg/mL (≈ 7.49 µM); MIC [12, 28]: 32 µg/mL (≈ 30 µM); MIC [13, 18]: 2 µg/mL (≈ 1.87 µM) |
